Laboratory results: article PMC11053447, “Human ABC and SLC Transporters: The Culprit Responsible for Unspecific PSMA-617 Uptake?” (Pharmaceuticals, 2024)
Where a SMILES comes first, the peptide text is derived from it. [ ]: non-standard residue; d: D form. Sar = CNCC(=O)O

Key:
[1] = molecular target: MRP1 (Homo sapiens, UniProt P33527)
[2] = molecular target: T1, human OAT4 (Homo sapiens, UniProt Q9NSA0); assay: SLC transporter substrate assay, HEK293-OAT4-LV vs control HEK293-Mock-LV cells; settings: 1 min
T1 sequence (Q9NSA0 1-550): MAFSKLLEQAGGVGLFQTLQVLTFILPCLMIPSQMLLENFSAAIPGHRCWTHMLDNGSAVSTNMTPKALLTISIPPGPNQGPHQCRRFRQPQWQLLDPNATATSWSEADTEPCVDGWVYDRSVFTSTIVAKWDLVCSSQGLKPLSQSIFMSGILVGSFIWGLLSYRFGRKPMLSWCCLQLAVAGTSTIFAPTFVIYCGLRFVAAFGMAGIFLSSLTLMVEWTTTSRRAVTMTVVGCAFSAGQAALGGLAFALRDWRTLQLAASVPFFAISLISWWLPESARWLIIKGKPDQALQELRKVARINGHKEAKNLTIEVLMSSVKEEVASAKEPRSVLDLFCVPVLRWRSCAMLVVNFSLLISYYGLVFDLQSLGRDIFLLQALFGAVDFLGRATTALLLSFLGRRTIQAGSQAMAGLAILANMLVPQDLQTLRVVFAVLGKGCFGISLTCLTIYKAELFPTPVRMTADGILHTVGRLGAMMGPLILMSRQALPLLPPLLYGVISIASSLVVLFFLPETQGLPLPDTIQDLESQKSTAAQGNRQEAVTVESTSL

[3] = molecular target: T2, human PEPT2 (Homo sapiens, UniProt Q16348); assay: SLC transporter substrate assay, CHO-K1-PEPT2 vs control CHO-K1 cells; settings: 8 min
T2 sequence (Q16348 1-729): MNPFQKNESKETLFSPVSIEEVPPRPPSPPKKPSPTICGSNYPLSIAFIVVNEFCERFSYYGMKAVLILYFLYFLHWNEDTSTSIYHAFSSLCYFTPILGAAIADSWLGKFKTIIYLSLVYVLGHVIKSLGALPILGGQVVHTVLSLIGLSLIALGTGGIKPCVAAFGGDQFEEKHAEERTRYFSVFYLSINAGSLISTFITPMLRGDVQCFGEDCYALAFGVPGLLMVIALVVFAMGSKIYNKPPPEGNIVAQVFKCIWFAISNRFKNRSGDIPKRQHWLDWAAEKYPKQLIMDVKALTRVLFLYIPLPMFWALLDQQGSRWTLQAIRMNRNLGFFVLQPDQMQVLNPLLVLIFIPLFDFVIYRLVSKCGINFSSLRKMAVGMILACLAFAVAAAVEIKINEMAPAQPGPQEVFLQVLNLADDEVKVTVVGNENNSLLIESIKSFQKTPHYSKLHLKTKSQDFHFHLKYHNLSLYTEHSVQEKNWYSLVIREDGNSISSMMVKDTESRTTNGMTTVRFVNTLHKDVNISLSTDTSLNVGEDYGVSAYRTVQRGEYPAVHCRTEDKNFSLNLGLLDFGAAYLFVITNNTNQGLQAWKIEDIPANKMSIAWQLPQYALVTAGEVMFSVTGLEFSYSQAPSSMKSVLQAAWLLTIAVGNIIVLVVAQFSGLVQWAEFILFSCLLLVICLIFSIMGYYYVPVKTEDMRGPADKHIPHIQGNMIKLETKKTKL
Method: The described cells were plated onto standard 24-well tissue culture plates at densities of 5 × 10^5 cells/well. […] Before starting the experiment, the cells were prepared by removing the medium and washing the cells twice with 300 µL of assay buffer. […] The cells were lysed by adding 300 µL of 0.1N NaOH, they were incubated for 10 min at 37 °C and 100 µL samples were taken from all the wells.
The amount of protein in each well was quantified using the BCA kit for protein determination (Sigma-Aldrich, St Louis, MO, USA). Positive controls were performed using a separate 96-well plate format according to Table S8 in SI4.
(§1) SI4. Results of transporter substrate assays (SLC)
Table S8: Parameters of positive controls, control cell lines and plating for SLC transporters assays.
KH: Krebs-Henseleit buffer, HBSS: Hank's balanced salt solution, MES: 2 -(N-morpholino) ethanesulfonic acid, cGMP:
Guanosine cyclic phosphate, E3S: Estrone -3-sulfate, Gly-Sar: Glycylsarcosine, MPP+: 1-methyl-4-phenylpyridinium.
Calculation of fold accumulation values for SLC transporter substrate assays The fold accumulation value was defined as the ratio of uptake of the test substance (TS) or probe substrate into transfected and control cells. If the fold accumulation is > 2 and can be inhibited by a known inhibitor of the transporter, the test substance can be considered as a substrate of the respective transporter.
(§2) Fold accumulation = UPTTRP
• UPTTRP: accumulated amount of test substance (TS) or probe substrate in transfected cells normalized by protein content […]
• UPTCTRL: accumulated amount of test substance (TS) or probe substrate in control cells normalized by protein content […]
Positive control conducted at pH 5.0.
Gly-Sar: Glycylsarcosine.

[4] = molecular target: T3, human OCT3 (Homo sapiens, UniProt O75751); assay: SLC transporter substrate assay, HEK293-OCT3-LV vs control HEK293-Mock-LV cells; type: in vitro ADME; settings: 3 min
T3 construct: host or cells: HEK293-OCT3-LV
T3 sequence (O75751 1-556): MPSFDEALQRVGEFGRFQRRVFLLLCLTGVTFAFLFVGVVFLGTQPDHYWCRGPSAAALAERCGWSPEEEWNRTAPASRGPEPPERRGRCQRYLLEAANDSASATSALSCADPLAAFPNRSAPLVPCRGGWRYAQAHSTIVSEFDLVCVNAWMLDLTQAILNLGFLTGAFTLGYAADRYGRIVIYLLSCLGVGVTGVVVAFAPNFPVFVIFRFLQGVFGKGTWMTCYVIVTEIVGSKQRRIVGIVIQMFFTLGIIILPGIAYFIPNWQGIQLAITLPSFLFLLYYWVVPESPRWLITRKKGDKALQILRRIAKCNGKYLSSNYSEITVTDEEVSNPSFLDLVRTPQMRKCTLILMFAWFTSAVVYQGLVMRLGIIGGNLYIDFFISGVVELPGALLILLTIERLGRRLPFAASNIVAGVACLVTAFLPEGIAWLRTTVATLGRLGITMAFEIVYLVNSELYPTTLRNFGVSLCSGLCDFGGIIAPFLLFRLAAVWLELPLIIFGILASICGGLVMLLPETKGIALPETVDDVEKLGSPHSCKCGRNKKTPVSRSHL
Method: as §1
(§3) Human Incubation Positive control substrate/ Control Special Incubation Assay […]
(Cell line) at 37°C [min] [h] […]
into transfected and control cells.
as §2
(§4) PSMA-617 in SLC transporters.
(§5) NA: not analyzed. Test substances were considered as substrates in case of fold accumulation values > 2 combined with inhibition values higher than 50%.
4.7 Organic cation transporter OCT3
(HEK293-OCT3-LV) and control cells (HEK293-Mock-LV) applying 2- and 20-minute incubation periods, measured in SLC transporter substrate assay. […] Concentrations are nominal.
Table S16: ([α,β-3H]Nal)Lu-PSMA-617-accumulation in OCT3 transporter-expressing (HEK293-OCT3-LV) and control […]
(§6) Conditions Accumulation (pmol/mg protein)
Compound Nominal In OCT3 Fold concentration Minutes transporter In control Active accumulation
(§7) [µM] expressing cells transport
(§8) Positive control (accumulation in cpm)
MPP +: 1-methyl -4-phenylpyridinium.

[5] = molecular target: T4, human OAT1 (Homo sapiens, UniProt Q4U2R8); assay: SLC transporter substrate assay, HEK293-OAT1-LV vs control HEK293-Mock-B-LV cells; settings: 2 min
T4 sequence (Q4U2R8 1-563): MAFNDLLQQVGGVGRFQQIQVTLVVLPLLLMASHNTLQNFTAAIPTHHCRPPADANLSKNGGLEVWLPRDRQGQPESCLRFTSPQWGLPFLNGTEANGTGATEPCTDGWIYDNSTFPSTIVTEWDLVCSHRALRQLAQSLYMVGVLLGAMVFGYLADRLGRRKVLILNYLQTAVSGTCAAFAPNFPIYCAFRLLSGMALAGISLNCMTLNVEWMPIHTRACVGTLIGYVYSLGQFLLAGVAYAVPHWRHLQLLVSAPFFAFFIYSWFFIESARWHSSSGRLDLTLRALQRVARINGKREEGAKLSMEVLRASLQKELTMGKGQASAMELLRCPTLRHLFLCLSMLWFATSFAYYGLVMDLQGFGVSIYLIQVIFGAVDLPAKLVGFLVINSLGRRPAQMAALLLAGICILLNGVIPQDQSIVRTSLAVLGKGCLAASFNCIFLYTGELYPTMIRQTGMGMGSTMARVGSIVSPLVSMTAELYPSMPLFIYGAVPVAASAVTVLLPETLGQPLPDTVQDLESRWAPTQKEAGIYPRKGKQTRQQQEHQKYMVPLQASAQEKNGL

[6] = molecular target: T5, human OAT2v1 (Homo sapiens, UniProt Q9Y694); assay: SLC transporter substrate assay, HEK293-OAT2v1-LV vs control HEK293-Mock-LV cells; type: in vitro ADME; settings: 1 min
T5 construct: host or cells: HEK293-OAT2v1-LV
T5 sequence (Q9Y694 1-546 isoform Q9Y694-2): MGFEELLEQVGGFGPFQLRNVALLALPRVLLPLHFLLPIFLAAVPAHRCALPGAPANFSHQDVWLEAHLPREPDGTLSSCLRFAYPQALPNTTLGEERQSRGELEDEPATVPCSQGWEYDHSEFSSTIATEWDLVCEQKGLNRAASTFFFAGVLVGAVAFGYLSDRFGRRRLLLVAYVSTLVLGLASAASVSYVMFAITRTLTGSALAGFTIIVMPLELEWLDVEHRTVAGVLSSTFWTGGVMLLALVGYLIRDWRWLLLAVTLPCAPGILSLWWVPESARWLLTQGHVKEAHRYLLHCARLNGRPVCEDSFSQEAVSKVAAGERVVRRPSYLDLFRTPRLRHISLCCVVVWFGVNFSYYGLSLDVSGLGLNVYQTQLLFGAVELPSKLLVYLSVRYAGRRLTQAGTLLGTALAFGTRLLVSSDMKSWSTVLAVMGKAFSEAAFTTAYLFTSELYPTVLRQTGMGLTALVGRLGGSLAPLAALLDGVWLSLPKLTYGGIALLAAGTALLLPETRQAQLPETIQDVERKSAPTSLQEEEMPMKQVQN
Method: as §1, §3
(Cell line) at 37°C [min] [h]
OAT2v1 cGMP (1.5) / Mock-B- Poly-D-lysine
as §2, §4, §5
4.4 Organic anion transporter OAT2v1 […]
expressed as mean (n=3) ± SD. Concentrations are nominal.
Table S13: ([α,β-3H]Nal)Lu-PSMA-617-accumulation in OAT2v1 transporter expressing (HEK293-OAT2v1-LV) and […]
as §6
Compound Nominal In OAT2v1 Fold concentration Minutes transporter In control Active accumulation
as §7, §8

[7] = positive control inhibitor 200.0 µM, E217βG probe, mean (n=3) ± SD
[8] = positive control at pH 5.0: Gly-Sar 4 µM + Cefadroxil 200 µM
[9] = positive control at pH 5.0: Gly-Sar 4 µM
[10] = positive control: MPP+ 0.02 µM + Quinidine 1000 µM
[11] = positive control: Tenofovir 5 µM + Probenecid 300 µM
[12] = positive control: Tenofovir 5 µM
[13] = positive control: cGMP 1.82 µM + Indomethacin 300 µM

MRP1, sequence (P33527 whole entry): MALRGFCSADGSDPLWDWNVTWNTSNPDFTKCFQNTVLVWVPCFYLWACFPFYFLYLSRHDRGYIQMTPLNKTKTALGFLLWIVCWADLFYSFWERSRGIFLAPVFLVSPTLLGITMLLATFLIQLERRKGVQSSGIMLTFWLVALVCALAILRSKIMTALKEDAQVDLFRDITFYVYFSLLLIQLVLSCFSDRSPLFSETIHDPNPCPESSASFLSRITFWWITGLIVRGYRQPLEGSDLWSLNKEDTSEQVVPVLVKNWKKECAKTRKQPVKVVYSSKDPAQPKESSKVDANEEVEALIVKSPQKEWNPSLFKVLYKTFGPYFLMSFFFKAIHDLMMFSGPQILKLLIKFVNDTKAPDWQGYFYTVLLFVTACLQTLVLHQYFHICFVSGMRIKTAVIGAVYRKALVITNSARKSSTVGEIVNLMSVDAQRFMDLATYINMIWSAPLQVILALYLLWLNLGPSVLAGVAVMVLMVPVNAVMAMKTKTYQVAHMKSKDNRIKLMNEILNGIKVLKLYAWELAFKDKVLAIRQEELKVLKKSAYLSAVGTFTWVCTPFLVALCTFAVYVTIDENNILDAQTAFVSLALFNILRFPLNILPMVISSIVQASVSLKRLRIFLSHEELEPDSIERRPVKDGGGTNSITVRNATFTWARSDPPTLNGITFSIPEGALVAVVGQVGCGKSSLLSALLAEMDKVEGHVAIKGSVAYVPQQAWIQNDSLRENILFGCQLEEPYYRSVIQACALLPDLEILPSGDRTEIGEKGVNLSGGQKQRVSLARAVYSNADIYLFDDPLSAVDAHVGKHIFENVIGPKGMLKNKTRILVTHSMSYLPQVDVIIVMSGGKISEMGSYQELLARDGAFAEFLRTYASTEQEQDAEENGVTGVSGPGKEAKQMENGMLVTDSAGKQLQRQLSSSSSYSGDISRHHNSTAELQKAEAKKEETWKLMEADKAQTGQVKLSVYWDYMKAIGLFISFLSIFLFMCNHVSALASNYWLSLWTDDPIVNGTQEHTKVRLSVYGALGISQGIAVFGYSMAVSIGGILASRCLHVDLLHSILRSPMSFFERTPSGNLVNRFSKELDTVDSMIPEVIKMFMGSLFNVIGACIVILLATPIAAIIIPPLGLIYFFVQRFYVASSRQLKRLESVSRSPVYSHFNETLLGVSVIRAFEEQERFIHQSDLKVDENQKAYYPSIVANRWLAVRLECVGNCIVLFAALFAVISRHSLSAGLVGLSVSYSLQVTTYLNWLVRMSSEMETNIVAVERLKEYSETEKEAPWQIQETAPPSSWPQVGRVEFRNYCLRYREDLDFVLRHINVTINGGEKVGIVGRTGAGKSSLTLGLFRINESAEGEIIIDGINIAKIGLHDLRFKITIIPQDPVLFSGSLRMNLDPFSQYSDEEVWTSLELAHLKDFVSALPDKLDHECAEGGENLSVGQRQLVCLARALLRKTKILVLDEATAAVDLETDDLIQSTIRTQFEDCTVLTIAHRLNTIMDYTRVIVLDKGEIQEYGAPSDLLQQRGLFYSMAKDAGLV

CCc1oc2ccccc2c1C(=O)c1cc(Br)c(O)c(Br)c1 [Benzbromarone, benzbromarone, reference compound]
inhibition at 3 min, 200 µM ([1]; human, membrane vesicles from Sf9 cells transfected with human MRP1, […], 0.2 µM): 104% | ATP dependent transport [1, 7]: -26.33 ± 10.19 pmol/mg/min | Relative ATP dependent transport [1, 7]: -3.87 ± 1.50 % of control

C[C@]12CC[C@@H]3c4ccc(OS(=O)(=O)[O-])cc4CC[C@H]3[C@@H]1CCC2=O.[Na+] [E3S, estrone-3-sulfate sodium salt, reference compound]
Fold accumulation ([2]; positive control: E3S 1 µM + Benzbromarone 300 µM): 5.12 | Fold accumulation ([2]; positive control: E3S 1 µM): 24.16

CN(CC(=O)O)C(=O)CN [Gly-Sar, glycylsarcosine, reference compound] (H-Gly-[Sar]-OH)
Accumulation in PEPT2 transporter expressing cells [3, 8]: 263.67 cpm | Accumulation in control cells [3, 8]: 34.33 cpm | Accumulation, active transport [3, 8]: 229.33 cpm | Fold accumulation [3, 8]: 7.68 | Accumulation in PEPT2 transporter expressing cells [3, 9]: 1570.00 cpm | Accumulation in control cells [3, 9]: 31.33 cpm | Accumulation, active transport [3, 9]: 1538.67 cpm | Fold accumulation [3, 9]: 50.11

C[n+]1ccc(-c2ccccc2)cc1 [MPP+, 1-Methyl-4-phenylpyridin-1-ium, reference compound]
Accumulation in OCT3 transporter expressing cells [4, 10]: 1429.667 cpm | Accumulation in control cells [4, 10]: 233.000 cpm | Accumulation, active transport [4, 10]: 1196.667 cpm | Fold accumulation [4, 10]: 6.14 | Accumulation in OCT3 transporter expressing cells ([4]; positive control: MPP+ 0.02 µM): 10728.333 cpm | Accumulation in control cells ([4]; positive control: MPP+ 0.02 µM): 629.333 cpm | Accumulation, active transport ([4]; positive control: MPP+ 0.02 µM): 10099.000 cpm | Fold accumulation ([4]; positive control: MPP+ 0.02 µM): 17.05

C[C@H](Cn1cnc2c(N)ncnc21)OCP(=O)(O)O [Tenofovir, tenofovir, reference compound]
Accumulation in OAT1 transporter expressing cells [5, 11]: 372.67 cpm | Accumulation in control cells [5, 11]: 77.00 cpm | Accumulation, active transport [5, 11]: 295.67 cpm | Fold accumulation [5, 11]: 4.84 | Accumulation in OAT1 transporter expressing cells [5, 12]: 7739.67 cpm | Accumulation in control cells [5, 12]: 85.00 cpm | Accumulation, active transport [5, 12]: 7654.67 cpm | Fold accumulation [5, 12]: 91.05

Nc1nc2c(ncn2[C@@H]2O[C@@H]3COP(=O)(O)O[C@H]3[C@H]2O)c(=O)[nH]1 [cGMP, guanosine 3′,5′-cyclic monophosphate, reference compound]
Accumulation in OAT2v1 transporter expressing cells [6, 13]: 551.67 cpm | Accumulation in control cells [6, 13]: 67.67 cpm | Accumulation, active transport [6, 13]: 484.00 cpm | Fold accumulation [6, 13]: 8.15 | Accumulation in OAT2v1 transporter expressing cells ([6]; positive control: cGMP 1.82 µM): 9207.33 cpm | Accumulation in control cells ([6]; positive control: cGMP 1.82 µM): 75.00 cpm | Accumulation, active transport ([6]; positive control: cGMP 1.82 µM): 9132.33 cpm | Fold accumulation ([6]; positive control: cGMP 1.82 µM): 122.76
